Measurements from publication PMC8151276, “An Integrated Approach toward NanoBRET Tracers for Analysis of GPCR Ligand Engagement” (Molecules, 2021).

Experiments:
HRH4 = molecular target: T1, HRH4 (Homo sapiens, UniProt Q9H3N8); test: NanoBRET screen HiBiT-HRH4 in HEK293; format: binding; settings: HRH4
T1 construct: purchased Promega (in-house HiBiT-GPCR construct library, NanoBRET)
Procedure: (§1) Each tracer candidate was screened across the entire library of HiBiT-GPCR constructs using NanoBRET as the detection modality. As depicted in Figure 4A, the specificity of interactions was evaluated through decrease in BRET due to competitive displacement of a bound tracer by excess parental compound. Each tracer was analyzed for binding to each HiBiT-GPCR fusion in the absence and in the presence of competing parental compound. Briefly, HEK293 cells were transfected with HiBiT-GPCR constructs diluted into promoterless DNA to reduce expression and maximize translocation to the cell surface. Each tracer candidate was then screened at concentrations of 1 μM and 0.1 μM across cells expressing these fusions. Cells were treated for 1.5 h with tracer either alone or in the presence of 20 μM competing parental compound (i.e., control). BRET was measured upon addition of purified LgBiT and subsequent complementation with HiBiT genetically fused to a GPCR. The specificity of interactions was assessed through a decrease in BRET signal due to competitive displacement of the bound tracer. To further gauge the robustness of these interactions, the fold response over the control (i.e., BRETtracer/BRETcontrol) was calculated. We chose a 1.5-fold response, which translates to ≥7-fold signal over noise as the minimal threshold required to score an interaction as positive. […]. Below we highlight the screening results obtained for our exemplary fluorescent tracers based on Clozapine, Amitriptyline and AZD1283.
(§2) HiBiT-GPCR DNA constructs were diluted in 10 mM Tris pH 8 to a final concentration of 0.01 μg/μL, arrayed in 96-well plates and stored at −20 °C. For transfection, HEK293 cells were suspended in Opti-MEM (without phenol red) supplemented with 2% fetal bovine serum (Seradigm) and 100 units/mL penicillin–streptomycin (Gibco) at a final concentration of 220,000 cells/mL and dispensed into white 96-well plates at 90 μL/well. Subsequent transfections and screens were carried using an Agilent Bravo Automated Liquid Handling Platform. First, the 96-well HiBiT DNA arrays were diluted 25-fold in Opti-MEM (without serum or phenol red) to a final concentration of 0.0004 μg/μL and 20 μL of the diluted DNAs were transferred into new 96-well plates. Next, promoterless carrier DNA (1 μg/μL) was diluted 25-fold (0.04 μg/μL) and then dispensed into the diluted arrays at 20 μL/well. Following brief mixing, Viafect transfection reagent (Promega) diluted 16-fold into Opti-MEM was dispensed into the plates at 40 μL/well. After mixing by pipetting, plates were incubated for 10 min on the pipetting station deck. The DNA-transfection reagent complexes were then added to plates containing cells. To facilitate the screen, 10 μL of DNA-transfection reagent complexes were added in duplicates to the top 4 and bottom 4 rows, resulting in two identical 48-well arrays per plate. Plates with transfected cells were incubated for 18–20 h at 37 °C/5% CO2. A screen of each tracer across the entire library using two different concentrations requires duplicate plates of transfected cells. Depending on the number of tracers being screened, transfections can be scaled up using the same ratios. The next day, for each tracer, four 20× screening solutions in tracer dilution buffer (Promega) were prepared: two duplicates at final concentration of 20 μM and two duplicates at a final concentration of 2 μM. A competing unmodified compound was added to one of each duplicate at a final concentration of 400 μM. The four resulting solutions were diluted 4-fold in Opti-MEM without serum or phenol red to generate 5× solutions (5 µM and 0.5 µM tracer +/− 100 μM competing compound). To screen the library, a BioTek MultiFlo FX liquid dispenser was used to dispense 22.5 µL of tracer solution to the top 4 rows and 22.5 µL tracer + competing compound solution to the 4 bottom rows. Plates were briefly mixed on an orbital shaker and incubated for 1.5 h at room temperature. […]

FZD4 = molecular target: T2, FZD4 (Homo sapiens, UniProt Q9ULV1); test: NanoBRET screen HiBiT-FZD4 in HEK293; format: binding; settings: FZD4
T2 construct: purchased Promega (in-house HiBiT-GPCR construct library, NanoBRET)
T2 sequence (Q9ULV1 37-537): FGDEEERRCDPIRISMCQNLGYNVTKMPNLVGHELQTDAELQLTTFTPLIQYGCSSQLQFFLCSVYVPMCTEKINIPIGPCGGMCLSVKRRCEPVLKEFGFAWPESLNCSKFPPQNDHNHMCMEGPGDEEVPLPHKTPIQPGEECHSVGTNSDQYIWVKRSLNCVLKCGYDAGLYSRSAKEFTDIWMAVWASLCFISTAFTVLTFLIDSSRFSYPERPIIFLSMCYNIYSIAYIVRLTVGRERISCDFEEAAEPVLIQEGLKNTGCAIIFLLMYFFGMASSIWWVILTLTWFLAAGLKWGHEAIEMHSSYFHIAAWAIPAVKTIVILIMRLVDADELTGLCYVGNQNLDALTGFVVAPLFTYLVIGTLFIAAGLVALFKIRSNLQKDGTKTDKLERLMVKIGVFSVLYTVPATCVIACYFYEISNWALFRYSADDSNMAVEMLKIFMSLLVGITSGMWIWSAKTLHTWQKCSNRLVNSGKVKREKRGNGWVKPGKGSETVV
Procedure: as §1, §2

T1 sequence (Q9H3N8 whole entry): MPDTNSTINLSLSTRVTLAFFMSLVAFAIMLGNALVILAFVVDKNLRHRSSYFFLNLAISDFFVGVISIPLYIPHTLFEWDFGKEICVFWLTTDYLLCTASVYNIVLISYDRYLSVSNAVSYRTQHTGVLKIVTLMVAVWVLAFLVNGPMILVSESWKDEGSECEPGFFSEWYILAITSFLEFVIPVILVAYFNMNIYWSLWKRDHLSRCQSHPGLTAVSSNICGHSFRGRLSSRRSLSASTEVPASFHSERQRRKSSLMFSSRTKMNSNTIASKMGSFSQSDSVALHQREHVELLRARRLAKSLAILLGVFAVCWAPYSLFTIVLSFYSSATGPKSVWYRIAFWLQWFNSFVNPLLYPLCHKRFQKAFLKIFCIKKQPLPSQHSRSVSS

| SMILES | NanoBRET Fold Response (HRH4; tracer 0.1μM) | NanoBRET Fold Response (HRH4; tracer 1μM) | NanoBRET Fold Response (FZD4; tracer 0.1μM) | NanoBRET Fold Response (FZD4; tracer 1μM) |
| --- | --- | --- | --- | --- |
| CC(C)N(CC[C@H](c1ccccc1)c1cc(CCNC(=O)c2ccc(CNC(=O)CCc3ccc4n3[B-](F)(F)[N+]3=C(c5ccc[nH]5)C=CC3=C4)cc2)ccc1O)C(C)C [Tolterodine-BZ-NB590] | 0.82 | 0.88 | 0.93 | 1.07 |
| CCCn1c(=O)c2[nH]c(-c3ccc(OCC(=O)NCCNC(=O)CCOCCNC(=O)c4ccc(CNC(=O)CCc5ccc6n5[B-](F)(F)[N+]5=C(c7ccc[nH]7)C=CC5=C6)cc4)cc3)nc2n(CCC)c1=O [XAC-3-NB590] | 1.37 | 1.05 | 1.15 | 1.12 |
